Reference: patent US12023330B2, “Use of manzamines as antiproliferative agent” (priority 2020, dated 2024)

Key:
CaSki cells [1] = assay: Cell cycle distribution by flow cytometry (PI); format: cell-based, human; settings: 4 μM
Description: (§1) Differential Activation of G1 Phase Arrest and Apoptosis by Manzamine A (1). To understand the mechanism of manzamine A (1)-mediated cell growth inhibition, we analyzed the cell cycle distribution by flow cytometry in C33A, HeLa, SiHa, and CaSki cell lines. […] FIGS. 3A and 3B show a representation of manzamine A (1) effect on cervical cancer cells treated with 4 μM concentration. […] The values represent standard error from the mean (mean±SE). DMSO serves as control. The significance level represents; *p<0.05; **p<0.001; ***[…]; and ns=non-significant. […] Particularly at 4 μM concentration, the percentage of G0/G1 cell population in SiHa and CaSki increased to 1.2 fold (p=0.001) and 1.4 fold (p=0.011) at 24 hours, and 1.2 fold (p=0.03) and 1.5 fold (p=0.006) at 48 hours as compared to respective DMSO control.
(§2) Cell-cycle and Apoptosis Analysis. Cervical cancer cells were seeded and treated with different concentrations of manzamine A (1) as above. Following trypsinization, one part of the cells was washed with PBS and fixed in chilled 70% ethanol on ice for 30 min. Cells were treated with RNAse A (1 mg/ml) at room temperature for 30 min and stained with propidium iodide (PI: 20 μg/ml). Cell-cycle distribution was analyzed by flow cytometry (Beckman Coulter Epics Elite, Beckman). A minimum of 10,000 events were counted per sample, and the data were analyzed using CXP software (Beckman Coulter) for the proportions of cells in G0/G1, S and G2/M phases of the cell cycle. The second part of the cells were washed twice with PBS and re-suspended in the buffer containing Alexa Fluor conjugated-Annexin-V and PI (Life Technologies, USA). The double staining of the cells was analyzed by flow cytometric analysis. A total of 10,000 cell events were collected to analyze the extent of early, late apoptosis, or necrosis from each sample with the percentages of bound annexin-V^+/PI^−, annexin V^+/PI^+, and annexin V^−/PI^+, respectively.

C33A cells [2] = assay: Cell cycle distribution by flow cytometry (PI); format: cell-based, human; settings: 4 μM, 48 and 72 hours
Description: as §1, §2

HeLa cells [3] = assay: Cell cycle distribution by flow cytometry (PI); format: cell-based, human; settings: 4 μM, 48 and 72 hours, vs DMSO control
Description: as §1, §2

[4] = system: normal human keratinocytes (HKc); assay: Cell growth kinetics of normal keratinocytes; format: cell-based; settings: 4 μM stated for compound 4; 48 h and 72 h; vs DMSO control
Description: Based on MoIN, the additional manzamine-related compounds such as manzamine D (2), manzamine F (3), 8-hydroxymanzamine A (4), and ircinal A (5) were tested for their biological activities targeting cervical cancer cell lines (SiHa and CaSki).
Generation of Normal Human Keratinocytes (HKc). The generation and processing of normal HKc from de-identified foreskin tissue samples has previously been described in our studies, see Pirisi, L.; Yasumoto, S.; Feller, M.; Doniger, J.; DiPaolo, J. A. J. Virol. 1987, 61, 1061-1066, and was implemented with the following modifications: dispase was used in lieu of collagenase, and a trypsinization step was added to release the epidermal cells. Briefly, to generate normal HKc primary cultures, the foreskin tissue, free of subcutaneous tissue, was placed in 10% dispase in phosphate buffer saline (PBS) and incubated overnight at 37° C. The next day, the epidermis was separated from the dermis, and processed mechanically by shredding the tissue into smaller pieces that were then treated with Trypsin/EDTA for 10 minutes at 37° C. Following the addition of fetal bovine serum (10%) to stop the trypsin action, cells were collected by centrifugation and plated in keratinocytes serum free medium (KSFM).
Cell Growth Kinetics. […] The cell proliferation activity was determined by cell counting under the microscope with a hemocytometer using trypan blue staining.

CaSki cells [5] = assay: CellTiter-Glo cell viability assay; format: cell-based, human
Description: (§3) Biological Effect of Marine Sponge Natural Product Manzamine A on Cervical Cancer Cell Growth. We determined the biological activity of manzamine A on cervical cancer cells C33A (HPV-negative), HeLa, SiHa, and CaSki (HPV16/18-positive) using a wide range of concentrations (0-40 μM) at different time points (24, 48 and 72 hours). The CellTiter-Glo cell viability assay determined the cell viability based on metabolically active cells producing ATP in the cell culture. […] Twenty thousand (2×10^4) cells were seeded in ninety-six well plates and treated with a wide range of 1 μM to 40 μM concentration of manzamine A for three time points (24, 48 and 72 h). The experiment was repeated at least three times in quadruplicates from different cell preparations with similar results. Percent viable cells were used to calculate IC50 values and are shown in the inset for all the cell lines at their respective time-points. The percent viability values represent standard error from the mean (mean±SE).
(§4) Cell Culture. Human cervical cancer cell lines C33A, HeLa, SiHa, and CaSki were purchased from the American Type Culture Collection (ATCC, Manassas, VA). Cells were grown in Dulbecco's Modified Eagle Medium (DMEM) medium supplemented with 10% fetal bovine serum, 2 mM L-glutamine, 100 U/ml of penicillin-streptomycin, and maintained at 37° C. with 5% CO2 in a humidified incubator.
(§5) Cell Viability Assay. Cell viability was measured by using Cell Titer-Glo Luminescent Cell Viability Assay Kit (Promega, Leiden, Netherlands) according to the manufacturer's instructions. Briefly, 2×10^4 cells were seeded in 96 well plates. Next day, cells were treated with different concentrations of MA (0-40 μM) for 24, 48 and 72 hours. Percent viability was calculated using the formula: percent (%) viability=100×(Treatment/Control). The IC50 value was calculated from the dose responsive sigmoid curve generated from % viability using GrpaphPad Prism 7 software.

C33A cells [6] = assay: CellTiter-Glo cell viability assay; format: cell-based, human
Description: as §3, §4, §5

HeLa cells [7] = assay: CellTiter-Glo cell viability assay; format: cell-based, human
Description: as §3, §4, §5

[8] = system: cervical cancer cell lines; assay: Colony formation assay; format: cell-based, human; settings: 2 and 4 μM; one week
Description: To maintain the treatment uniformity across the cell lines, we selected optimal dose concentration of 1 to 4 μM, and treated C33A, HeLa, SiHa and CaSki cell lines.
Colony Formation Assay. Cancer cell lines were seeded at a density of 1×10^3 cells/ml in 6-well plates. Following overnight incubation, the cells were treated with manzamine A (1) (2 μM and 4 μM) and incubated in a tissue culture incubator at 37° C. with 5% CO2. After one week, the developed cell colonies were fixed with 4% paraformaldehyde, stained with 0.5% crystal violet, and were photographed.

For `O[C@]12C=C(c3nccc4c3[nH]c3ccccc34)[C@@H]3CCN(CCCC/C=C\CC1)C[C@@]31C[C@@H]3/C=C\CCCCN3[C@H]12` [manzamine A], the “increase of percentage of G0/G1 cell population vs DMSO control” value (CaSki cells [1]; 24 hours) was 1.4 fold, the “increase of percentage of G0/G1 cell population vs DMSO control” value (CaSki cells [1]; 48 hours) was 1.5 fold and the G2/M cell population (C33A cells [2]) was “significant decrease”. For the same molecule, the “cell population in G0/G1” value (C33A cells [2]; vs DMSO control) was “significant decrease”, the “cell population in G0/G1” value (HeLa cells [3]) was “significant decrease” and the “cell growth kinetics of normal HKc” value [4] was “no adverse effect”. The IC50 (CaSki cells [5]; 48 hours) was 19.9 µM, the IC50 (CaSki cells [5]; 72 hours) was 9.4 µM and the IC50 (C33A cells [6]; 48 hours) was 2.1 µM. For the same molecule, the IC50 (C33A cells [6]; 72 hours) was 1.6 µM, the IC50 (HeLa cells [7]; 48 hours) was 4 µM and the IC50 (HeLa cells [7]; 72 hours) was 5.3 µM. The “colony formation (long-term cell growth)” value [8] was “inhibited the cell growth”.
